The numbers were not newly measured in patent US20150307774A1, “Chelates, chelating agents, conjugates derived thereof and their use” (priority 2012, published 2015), which cites them from elsewhere.

For the data set the following is noted: at this pH (7.4), calculated from literature data.

For the molecule `O=C(O)CN(CCN(CC(=O)O)CC(=O)O)CC(=O)O` [EDTA], the conditional stability constant was 14.53 Log units.
